Our source for the relative viability values is the supplement of paper PMC10307832.

Assay in all cases: relative viability (nuclei count vs DMSO), 5 days (fraction); higher = more cells survive
Compound in the test “CX-5461 + Luminespib”: Cc1cnc(CNC(=O)c2c(=O)c3ccc(N4CCCN(C)CC4)nc3n3c2sc2ccccc23)cn1 [CX-5461] + CCNC(=O)c1noc(-c2cc(C(C)C)c(O)cc2O)c1-c1ccc(CN2CCOCC2)cc1 [Luminespib] (partner 0.01 µM)
In outline:
(§1)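 A single step with final 0.05% Triton X-100, 1% formaldehyde and 1 ug/ml Hoechst fixed the cells and stained nuclei 5 days after treatment. Lung cancer cell lines in 1536-well plates had been treated by pin tool the day after seeding with one drug alone or a fixed anchor-drug dose plus five library-drug doses (not always all listed) in √10 steps, and nuclei were counted on 4× images. Relative viability is the ratio of nuclei in treated wells to nuclei in vehicle wells, taken as the median of duplicate plates.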

Compound in the test “CX-5461 + Crizotinib”: Cc1cnc(CNC(=O)c2c(=O)c3ccc(N4CCCN(C)CC4)nc3n3c2sc2ccccc23)cn1 [CX-5461] + C[C@@H](Oc1cc(-c2cnn(C3CCNCC3)c2)cnc1N)c1c(Cl)ccc(F)c1Cl [Crizotinib] (partner 1 µM)
In outline: as §1

Compound in the test “CX-5461 + Pemetrexed”: Cc1cnc(CNC(=O)c2c(=O)c3ccc(N4CCCN(C)CC4)nc3n3c2sc2ccccc23)cn1 [CX-5461] + Nc1nc2[nH]cc(CCc3ccc(C(=O)N[C@@H](CCC(=O)O)C(=O)O)cc3)c2c(=O)[nH]1 [Pemetrexed] (partner 0.2 µM)
In outline: as §1

Compound in the test “IMD-0354 + OSI-027”: O=C(Nc1cc(C(F)(F)F)cc(C(F)(F)F)c1)c1cc(Cl)ccc1O [IMD-0354] + COc1cccc2cc(-c3nc([C@H]4CC[C@H](C(=O)O)CC4)n4ncnc(N)c34)[nH]c12 [OSI-027] (partner 0.5 µM)
In outline:
as §1

As for NCI-H2126, the relative viability with CX-5461 + Luminespib (first compound 0.01 µM) was found to be 0.883; with CX-5461 + Luminespib (first compound 0.03162 µM) it was 0.848; in the test with CX-5461 + Luminespib (first compound 0.1 µM), 0.908; with CX-5461 + Luminespib (first compound 0.3162 µM), 0.847; with CX-5461 + Luminespib (first compound 1 µM) it was 0.411; in the test with CX-5461 + Crizotinib (first compound 0.01 µM) it was 1.05. The relative viability in the test with CX-5461 + Crizotinib (first compound 0.03162 µM) worked out at 1.11; with CX-5461 + Crizotinib (first compound 0.1 µM), 1.08; in the test with CX-5461 + Crizotinib (first compound 0.3162 µM) it was 1.07; with CX-5461 + Crizotinib (first compound 1 µM), 0.975; with CX-5461 + Pemetrexed (first compound 0.01 µM), 0.697; in the test with CX-5461 + Pemetrexed (first compound 0.03162 µM), 0.713. The relative viability in the test with CX-5461 + Pemetrexed (first compound 0.1 µM) was determined as 0.687; in the test with CX-5461 + Pemetrexed (first compound 0.3162 µM), 0.672; with CX-5461 + Pemetrexed (first compound 1 µM), 0.634; in the test with IMD-0354 + OSI-027 (first compound 0.04 µM) it was 0.752; in the test with IMD-0354 + OSI-027 (first compound 0.1265 µM), 0.609; with IMD-0354 + OSI-027 (first compound 0.4 µM), 0.594. Further, the relative viability in the test with IMD-0354 + OSI-027 (first compound 1.265 µM) was 0.588; with IMD-0354 + OSI-027 (first compound 4 µM), 0.524.
In the case of NCI-H2170, the relative viability was determined as 0.636 with CX-5461 + Luminespib (first compound 0.01 µM); 0.54 in the test with CX-5461 + Luminespib (first compound 0.03162 µM); 1.02 in the test with CX-5461 + Luminespib (first compound 0.1 µM); 0.771 with CX-5461 + Luminespib (first compound 0.3162 µM); 0.554 with CX-5461 + Luminespib (first compound 1 µM); 1.17 in the test with CX-5461 + Crizotinib (first compound 0.01 µM). The relative viability came to 1.29 with CX-5461 + Crizotinib (first compound 0.03162 µM); 1.28 with CX-5461 + Crizotinib (first compound 0.1 µM); 1.18 with CX-5461 + Crizotinib (first compound 0.3162 µM); 1.09 in the test with CX-5461 + Crizotinib (first compound 1 µM); 0.252 with CX-5461 + Pemetrexed (first compound 0.01 µM); 0.257 in the test with CX-5461 + Pemetrexed (first compound 0.03162 µM). Also, the relative viability with CX-5461 + Pemetrexed (first compound 0.1 µM) is 0.267; with CX-5461 + Pemetrexed (first compound 0.3162 µM), 0.26; in the test with CX-5461 + Pemetrexed (first compound 1 µM) it was 0.272; with IMD-0354 + OSI-027 (first compound 0.04 µM), 0.764; in the test with IMD-0354 + OSI-027 (first compound 0.1265 µM), 0.673; with IMD-0354 + OSI-027 (first compound 0.4 µM), 0.475. In addition, the relative viability was found to be 0.547 with IMD-0354 + OSI-027 (first compound 1.265 µM) and 0.231 in the test with IMD-0354 + OSI-027 (first compound 4 µM).
NCI-H2228: the relative viability amounted to 0.148 in the test with CX-5461 + Luminespib (first compound 0.01 µM); 0.147 with CX-5461 + Luminespib (first compound 0.03162 µM); 0.196 with CX-5461 + Luminespib (first compound 0.1 µM); 0.172 in the test with CX-5461 + Luminespib (first compound 0.3162 µM); 0.101 in the test with CX-5461 + Luminespib (first compound 1 µM); 0.445 with CX-5461 + Crizotinib (first compound 0.01 µM). The relative viability with CX-5461 + Crizotinib (first compound 0.03162 µM) worked out at 0.602; with CX-5461 + Crizotinib (first compound 0.1 µM), 0.511; with CX-5461 + Crizotinib (first compound 0.3162 µM) it was 0.482; with CX-5461 + Crizotinib (first compound 1 µM), 0.204; with CX-5461 + Pemetrexed (first compound 0.01 µM), 0.355; with CX-5461 + Pemetrexed (first compound 0.03162 µM), 0.369. For the same cell line, the relative viability with CX-5461 + Pemetrexed (first compound 0.1 µM) turned out to be 0.312; in the test with CX-5461 + Pemetrexed (first compound 0.3162 µM), 0.305; with CX-5461 + Pemetrexed (first compound 1 µM) it was 0.182; with IMD-0354 + OSI-027 (first compound 0.04 µM), 0.586; with IMD-0354 + OSI-027 (first compound 0.1265 µM), 0.431; in the test with IMD-0354 + OSI-027 (first compound 0.4 µM) it was 0.348. Moreover, the relative viability in the test with IMD-0354 + OSI-027 (first compound 1.265 µM) is 0.23; in the test with IMD-0354 + OSI-027 (first compound 4 µM), 0.142.
Consider NCI-H2347, for which the relative viability with CX-5461 + Luminespib (first compound 0.01 µM) was 0.563; in the test with CX-5461 + Luminespib (first compound 0.03162 µM) it was 0.413; with CX-5461 + Luminespib (first compound 0.1 µM), 0.753; in the test with CX-5461 + Luminespib (first compound 0.3162 µM), 0.327; with CX-5461 + Luminespib (first compound 1 µM), 0.341; with CX-5461 + Crizotinib (first compound 0.01 µM), 0.446. Besides, the relative viability turned out to be 0.696 with CX-5461 + Crizotinib (first compound 0.03162 µM); 0.674 with CX-5461 + Crizotinib (first compound 0.1 µM); 0.687 in the test with CX-5461 + Crizotinib (first compound 0.3162 µM); 0.523 with CX-5461 + Crizotinib (first compound 1 µM); 0.396 in the test with CX-5461 + Pemetrexed (first compound 0.01 µM); 0.42 in the test with CX-5461 + Pemetrexed (first compound 0.03162 µM). Further, the relative viability with CX-5461 + Pemetrexed (first compound 0.1 µM) worked out at 0.431; with CX-5461 + Pemetrexed (first compound 0.3162 µM), 0.411; in the test with CX-5461 + Pemetrexed (first compound 1 µM) it was 0.41; with IMD-0354 + OSI-027 (first compound 0.04 µM), 0.37; in the test with IMD-0354 + OSI-027 (first compound 0.1265 µM), 0.331; in the test with IMD-0354 + OSI-027 (first compound 0.4 µM), 0.42. Also, the figures for the relative viability in the test with IMD-0354 + OSI-027 (first compound 1.265 µM) and with IMD-0354 + OSI-027 (first compound 4 µM) were 0.294 and 0.335, respectively.
For NCI-H2405, the relative viability with CX-5461 + Luminespib (first compound 0.01 µM) came to 0.664; with CX-5461 + Luminespib (first compound 0.03162 µM), 0.665; with CX-5461 + Luminespib (first compound 0.1 µM), 0.862; with CX-5461 + Luminespib (first compound 0.3162 µM), 0.743; in the test with CX-5461 + Luminespib (first compound 1 µM), 0.515; in the test with CX-5461 + Crizotinib (first compound 0.01 µM), 0.827. In addition, the relative viability with CX-5461 + Crizotinib (first compound 0.03162 µM) was found to be 0.949; in the test with CX-5461 + Crizotinib (first compound 0.1 µM), 0.843; with CX-5461 + Crizotinib (first compound 0.3162 µM), 0.549; with CX-5461 + Crizotinib (first compound 1 µM) it was 0.821; with CX-5461 + Pemetrexed (first compound 0.01 µM), 1.06; with CX-5461 + Pemetrexed (first compound 0.03162 µM), 0.892. Moreover, the relative viability in the test with CX-5461 + Pemetrexed (first compound 0.1 µM) is 1; with CX-5461 + Pemetrexed (first compound 0.3162 µM) it was 1.02; with CX-5461 + Pemetrexed (first compound 1 µM), 0.911; in the test with IMD-0354 + OSI-027 (first compound 0.04 µM), 0.696; in the test with IMD-0354 + OSI-027 (first compound 0.1265 µM), 0.601; with IMD-0354 + OSI-027 (first compound 0.4 µM), 0.552. The relative viability with IMD-0354 + OSI-027 (first compound 1.265 µM) is 0.312; with IMD-0354 + OSI-027 (first compound 4 µM), 0.307.
As to NCI-H3122, the relative viability is 0.0935 with CX-5461 + Luminespib (first compound 0.01 µM); 0.0696 in the test with CX-5461 + Luminespib (first compound 0.03162 µM); 0.096 in the test with CX-5461 + Luminespib (first compound 0.1 µM); 0.0801 with CX-5461 + Luminespib (first compound 0.3162 µM); 0.0781 with CX-5461 + Luminespib (first compound 1 µM); 0.299 with CX-5461 + Crizotinib (first compound 0.01 µM). The relative viability in the test with CX-5461 + Crizotinib (first compound 0.03162 µM) turned out to be 0.267; with CX-5461 + Crizotinib (first compound 0.1 µM) it was 0.284; in the test with CX-5461 + Crizotinib (first compound 0.3162 µM), 0.255; with CX-5461 + Crizotinib (first compound 1 µM), 0.282; with CX-5461 + Pemetrexed (first compound 0.01 µM), 0.201; with CX-5461 + Pemetrexed (first compound 0.03162 µM) it was 0.196. Further, the relative viability with CX-5461 + Pemetrexed (first compound 0.1 µM) came to 0.2; with CX-5461 + Pemetrexed (first compound 0.3162 µM) it was 0.206; with CX-5461 + Pemetrexed (first compound 1 µM) it was 0.18; with IMD-0354 + OSI-027 (first compound 0.04 µM), 1.08; in the test with IMD-0354 + OSI-027 (first compound 0.1265 µM), 0.851; with IMD-0354 + OSI-027 (first compound 0.4 µM), 0.505. Further, the relative viability with IMD-0354 + OSI-027 (first compound 1.265 µM) came to 0.223; with IMD-0354 + OSI-027 (first compound 4 µM), 0.114.
